Reference: PubChem BioAssay AID1922 (Vanderbilt High Throughput Screening Facility, 2009)

Biological target: ATP-sensitive inward rectifier potassium channel 1 (Homo sapiens) (UniProt P48048)
Assay: PubChem AID 1922
Conditions: HEK-293 ROMK whole-cell patch clamp, % block, stronger effect = higher value

Chain of ATP-sensitive inward rectifier potassium channel 1 (Homo sapiens) (P48048 whole entry, looked up): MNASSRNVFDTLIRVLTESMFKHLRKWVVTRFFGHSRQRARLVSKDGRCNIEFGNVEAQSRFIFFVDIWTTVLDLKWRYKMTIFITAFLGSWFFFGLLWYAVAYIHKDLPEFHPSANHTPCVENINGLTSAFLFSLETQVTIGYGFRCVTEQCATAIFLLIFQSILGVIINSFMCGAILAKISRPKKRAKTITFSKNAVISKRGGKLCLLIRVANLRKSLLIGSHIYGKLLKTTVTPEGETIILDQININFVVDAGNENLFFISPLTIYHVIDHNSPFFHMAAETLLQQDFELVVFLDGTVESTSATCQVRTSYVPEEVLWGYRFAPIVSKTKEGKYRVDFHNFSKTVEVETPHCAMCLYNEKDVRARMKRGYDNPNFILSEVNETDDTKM

Compound | inhibition (ROMK block, at 1 µM) [%] | inhibition (ROMK block, at 3 µM) [%] | inhibition (at 10 µM) [%]
O=[N+]([O-])c1ccc2nc(COCc3nc4ccc([N+](=O)[O-])cc4[nH]3)[nH]c2c1 | 62.6 | 78.3 | 88.7
O=[N+]([O-])c1ccc(CN2CCOCCOCCN(Cc3ccc([N+](=O)[O-])cc3)CCOCC2)cc1 | 63.4 | 78.2 | 95.3
